Assay [1] deals with T1, Substance-K receptor (Oryctolagus cuniculus) (UniProt P79218).
T1 sequence (whole entry): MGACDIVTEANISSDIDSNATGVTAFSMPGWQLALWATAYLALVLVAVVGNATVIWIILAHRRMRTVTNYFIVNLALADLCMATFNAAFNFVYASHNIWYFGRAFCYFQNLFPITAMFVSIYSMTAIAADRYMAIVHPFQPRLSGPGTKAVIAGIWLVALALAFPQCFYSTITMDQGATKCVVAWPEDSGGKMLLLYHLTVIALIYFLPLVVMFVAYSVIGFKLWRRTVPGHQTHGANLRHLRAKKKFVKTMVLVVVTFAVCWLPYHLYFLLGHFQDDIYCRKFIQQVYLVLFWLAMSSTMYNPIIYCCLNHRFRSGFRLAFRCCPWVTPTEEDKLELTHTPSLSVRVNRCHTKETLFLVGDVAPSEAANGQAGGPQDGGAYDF
Nature of the assay: Tested for the binding affinity towards tachykinin receptor 2 (NK2) in rabbit pulmonary artery tissue.

For assay [2], the system named is Substance-P receptor (Oryctolagus cuniculus). Nature of the assay: Tested for the binding affinity towards tachykinin receptor 1 (NK1) in rabbit pulmonary artery tissue.
Assay [3] concerns the target T2, Substance-K receptor (Cavia porcellus) (UniProt Q64077).
T2 sequence (whole entry): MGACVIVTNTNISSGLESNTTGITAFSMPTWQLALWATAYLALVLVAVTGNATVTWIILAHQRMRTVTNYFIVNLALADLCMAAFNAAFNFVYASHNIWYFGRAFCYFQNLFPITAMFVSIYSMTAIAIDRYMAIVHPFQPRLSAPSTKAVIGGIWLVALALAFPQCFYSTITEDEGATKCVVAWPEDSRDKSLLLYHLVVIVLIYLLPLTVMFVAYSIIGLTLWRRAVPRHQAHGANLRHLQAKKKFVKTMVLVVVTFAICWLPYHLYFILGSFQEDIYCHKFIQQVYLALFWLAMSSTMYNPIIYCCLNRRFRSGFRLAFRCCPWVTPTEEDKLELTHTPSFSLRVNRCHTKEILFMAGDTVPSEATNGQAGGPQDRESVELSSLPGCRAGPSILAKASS
Nature of the assay: In vivo potency as dose ratio (ED50 ratio for Tachykinin receptor 2 (NK2) in presence and absence of antagonist) in guinea pig PMM after oral administration at a dose 30 uM/Kg.

For assay [4], the target named is Substance-P receptor (Cavia porcellus) (UniProt P30547). Nature of the assay: In vivo potency as dose ratio (ED50 ratio for Tachykinin receptor 1 in presence and absence of antagonist) in guinea pig PMM after intravenous administration at a dose 10 uM/Kg.
The target is the same in assay [5]. Nature of the assay: In vivo potency as dose ratio (ED50 ratio for Tachykinin receptor 1 in presence and absence of antagonist) in guinea pig PMM after oral administration at a dose 30 uM/Kg.
Assay [6] addresses T2, Substance-K receptor (Cavia porcellus). Nature of the assay: In vivo potency as dose ratio (ED50 ratio for Tachykinin receptor 2 (NK2) in presence and absence of antagonist) in guinea pig PMM after intravenous administration at a dose 10 uM/Kg.
In the next assay the target is T3, Substance-K receptor (Homo sapiens, UniProt P21452).
T3 sequence (P21452 whole entry): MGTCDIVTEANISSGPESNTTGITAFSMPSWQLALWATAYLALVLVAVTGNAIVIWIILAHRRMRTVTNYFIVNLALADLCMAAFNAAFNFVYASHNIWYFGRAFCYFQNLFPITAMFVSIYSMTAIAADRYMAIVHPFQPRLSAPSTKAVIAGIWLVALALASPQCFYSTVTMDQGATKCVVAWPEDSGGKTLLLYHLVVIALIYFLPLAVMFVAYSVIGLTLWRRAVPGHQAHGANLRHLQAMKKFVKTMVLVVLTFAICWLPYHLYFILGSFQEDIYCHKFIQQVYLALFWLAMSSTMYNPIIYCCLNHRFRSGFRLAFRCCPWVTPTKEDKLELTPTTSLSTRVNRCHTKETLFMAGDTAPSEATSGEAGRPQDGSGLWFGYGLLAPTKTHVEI
Nature of the assay: Inhibition of binding of [3H]NKA to human Tachykinin receptor 2 (NK2) expressed in mouse erythroleukemia cells. The class given is cell-based.

The target of another assay is T4, Neuromedin-K receptor (Homo sapiens, UniProt P29371).
T4 sequence (P29371 whole entry): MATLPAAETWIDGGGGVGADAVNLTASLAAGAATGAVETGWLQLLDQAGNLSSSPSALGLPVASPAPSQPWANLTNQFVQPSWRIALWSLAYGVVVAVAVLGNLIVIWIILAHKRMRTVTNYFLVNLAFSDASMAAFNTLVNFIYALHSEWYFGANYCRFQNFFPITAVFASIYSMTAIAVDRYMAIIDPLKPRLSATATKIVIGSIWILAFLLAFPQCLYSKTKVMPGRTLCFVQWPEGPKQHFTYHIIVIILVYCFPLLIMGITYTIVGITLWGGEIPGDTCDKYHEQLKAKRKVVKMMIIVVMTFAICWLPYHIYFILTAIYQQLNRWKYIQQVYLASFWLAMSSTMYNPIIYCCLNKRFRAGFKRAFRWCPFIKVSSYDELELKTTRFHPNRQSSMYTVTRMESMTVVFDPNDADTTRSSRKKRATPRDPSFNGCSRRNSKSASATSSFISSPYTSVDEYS
Nature of the assay: Inhibition of binding of [125I]MPNI to human Tachykinin receptor 3 (NK3) expressed in mouse erythroleukemia cells. It is filed as cell-based.

Chain of Substance-P receptor (Cavia porcellus) (P30547 whole entry): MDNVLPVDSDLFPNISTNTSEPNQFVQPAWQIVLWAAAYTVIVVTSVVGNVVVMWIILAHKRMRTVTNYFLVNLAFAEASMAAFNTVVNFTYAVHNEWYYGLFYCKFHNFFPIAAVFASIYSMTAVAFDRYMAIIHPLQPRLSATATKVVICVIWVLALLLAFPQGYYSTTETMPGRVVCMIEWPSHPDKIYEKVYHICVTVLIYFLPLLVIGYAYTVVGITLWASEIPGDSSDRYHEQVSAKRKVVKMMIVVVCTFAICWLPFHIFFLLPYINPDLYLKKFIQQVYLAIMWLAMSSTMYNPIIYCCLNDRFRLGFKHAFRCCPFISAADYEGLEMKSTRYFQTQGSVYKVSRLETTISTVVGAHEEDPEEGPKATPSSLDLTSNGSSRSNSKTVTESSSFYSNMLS

`CN(C[C@@H](CCN1CCC(c2ccc(C(=O)O)cc2[S+](C)[O-])CC1)c1ccc(Cl)c(Cl)c1)C(=O)c1cc(C#N)cc2ccccc12` (mixture of isomers): the pKB in assay [1] turned out to be 6.38; in assay [2], 7.87.
`CNC(=O)C1(N2CCOCC2=O)CCN(CC[C@H](CN(C)C(=O)c2cc(C#N)cc3ccccc23)c2ccc(Cl)c(Cl)c2)CC1`: the pKB in assay [1] was 7.81; in assay [2] it was 7.51.
As to `CN(C[C@@H](CCN1CCC(c2ccc([S+](C)[O-])cc2[S+](C)[O-])CC1)c1ccc(Cl)c(Cl)c1)C(=O)c1cc(C#N)cc2ccccc12` (mixture of isomers), the results for the pKB in assay [1] and in assay [2] were 8.27 and 7.33, respectively.
Consider `CN(C)C(=O)C1(N2CCCCC2=O)CCN(CC[C@H](CN(C)C(=O)c2cc(C#N)cc3ccccc23)c2ccc(Cl)c(Cl)c2)CC1`, for which the pKB turned out to be 8.52 in assay [1] and 7.36 in assay [2].
As to `CN(C[C@@H](CCN1CCC(c2ccc(F)cc2[S@+](C)[O-])CC1)c1ccc(Cl)c(Cl)c1)C(=O)c1cc(C#N)cc2ccccc12`, the dose ratio in assay [3] is 5; in assay [4] it was 126; in assay [5], 4; in assay [6], 153. In addition, the pKB was 8.38 in assay [1] and 8.01 in assay [2].
Take `CN(C[C@@H](CCN1CCC(c2ccc(O)cc2[S+](C)[O-])CC1)c1ccc(Cl)c(Cl)c1)C(=O)c1cc(C#N)cc2ccccc12` (mixture of isomers): the results for the pKB in assay [1] and in assay [2] were 8.34 and 8.93, respectively.
Turning to `CN(C[C@@H](CCN1CCC(c2ccc(Br)cc2[S@+](C)[O-])CC1)c1ccc(Cl)c(Cl)c1)C(=O)c1cc(C#N)cc2ccccc12`, the dose ratio in assay [4] was determined as 11; in assay [6], 30. The pKB in assay [1] was determined as 8.12; in assay [2], 8.
Take `CN(C[C@@H](CCN1CCC(N2CCCNC2=O)CC1)c1ccc(Cl)c(Cl)c1)C(=O)c1cc(C#N)cc2ccccc12`: the pKB in assay [1] came out at 7.86; in assay [2] it was 8.18.
The corresponding values for `CN(C[C@@H](CCN1CCC(c2cc(Br)ccc2[S+](C)[O-])CC1)c1ccc(Cl)c(Cl)c1)C(=O)c1cc(C#N)cc2ccccc12` (mixture of isomers) are 8.55 and 8.46.
The corresponding values for `CN(C[C@@H](CCN1CCC(c2ccccc2[S@+](C)[O-])CC1)c1ccc(Cl)c(Cl)c1)C(=O)c1cc(C#N)c(C#N)c2ccccc12` are 7.65 and 7.76.
Take `CNC(=O)C1(N2CCCNC2=O)CCN(CC[C@H](CN(C)C(=O)c2cc(C#N)cc3ccccc23)c2ccc(Cl)c(Cl)c2)CC1`: the pKB in assay [1] is 8.22; in assay [2], 7.6.
Take `CNC(=O)C1(N2CCOCC2=O)CCN(CC[C@H](CN(C)C(=O)c2c(OC)c(C#N)cc3ccccc23)c2ccc(Cl)c(Cl)c2)CC1`: the values for the pKB in assay [1] and in assay [2] were 7.79 and 8.55, respectively.
The corresponding values for `CNC(=O)C1(N2CCCNC2=O)CCN(CC[C@H](CN(C)C(=O)c2c(OC)c(C#N)cc3ccccc23)c2ccc(Cl)c(Cl)c2)CC1` are 8.11 and 8.14.
On the same counts, the results for `COc1c(C#N)cc2ccccc2c1C(=O)N(C)C[C@@H](CCN1CCC(C(=O)N(C)C)(N2CCCCC2=O)CC1)c1ccc(Cl)c(Cl)c1` are 7.7 and 7.88.
Take `CN(C[C@@H](CCN1CCC(c2ccc(C(N)=O)cc2[S+](C)[O-])CC1)c1ccc(Cl)c(Cl)c1)C(=O)c1cc(C#N)cc2ccccc12` (mixture of isomers): the values for the pKB in assay [1] and in assay [2] were 6.92 and 8.53, respectively.
Consider `COC(=O)c1ccc(C2CCN(CC[C@H](CN(C)C(=O)c3cc(C#N)cc4ccccc34)c3ccc(Cl)c(Cl)c3)CC2)c([S+](C)[O-])c1` (mixture of isomers), for which the pKB in assay [1] came out at 6.84; in assay [2] it was 7.92.
On the same counts, the results for `COC(=O)c1ccc(C2CCN(CC[C@H](CN(C)C(=O)c3c(OC)c(C#N)cc4ccccc34)c3ccc(Cl)c(Cl)c3)CC2)c([S+](C)[O-])c1` (stereo partly drawn) are < 7 and 8.85.
The corresponding values for `CN(C[C@@H](CCN1CCC(c2ccccc2[S@+](C)[O-])CC1)c1ccc(Cl)c(Cl)c1)C(=O)c1cc(C#N)cc2cc(O)ccc12` are 7.31 and 8.02.
The corresponding values for `COc1c(C#N)cc2ccccc2c1C(=O)N(C)C[C@@H](CCN1CCC(N2CCCNC2=O)CC1)c1ccc(Cl)c(Cl)c1` are 7.92 and 8.45.
`CN(C[C@@H](CCN1CCC(c2ccccc2[S+](C)[O-])CC1)c1ccc(Cl)c(Cl)c1)C(=O)c1cc(C#N)cc2ccccc12` (mixture of isomers) yielded a pKB in assay [1] of 8.48.
Regarding `Cc1c(C#N)cc(C(=O)N(C)C[C@@H](CCN2CCC(c3ccccc3[S@+](C)[O-])CC2)c2ccc(Cl)c(Cl)c2)c2ccccc12`, the pKB amounted to 7.8 in assay [1] and 8.53 in assay [2].
Regarding `COc1ccc2c(C(=O)N(C)C[C@@H](CCN3CCC(c4ccccc4[S@+](C)[O-])CC3)c3ccc(Cl)c(Cl)c3)cc(C#N)cc2c1`, the pKB in assay [1] was determined as 7.97; in assay [2], 7.
For `CN(C[C@@H](CCN1CCC(c2ccccc2[S@+](C)[O-])CC1)c1ccc(Cl)c(Cl)c1)C(=O)c1cc(C#N)c(Br)c2ccccc12`, the values for the pKB in assay [1] and in assay [2] were 6.99 and 7.78, respectively.
Regarding `CN(C[C@@H](CCN1CCC(c2ccccc2[S@+](C)[O-])CC1)c1ccc(Cl)c(Cl)c1)C(=O)c1cc(C#N)cc2cc(C#N)ccc12`, the pKB turned out to be 6.42 in assay [1] and 7.77 in assay [2].
In the case of `CN(C[C@@H](CCN1CCC(c2ccccc2[S@+](C)[O-])CC1)c1ccc(Cl)c(Cl)c1)C(=O)c1cc(C#N)c(F)c2ccccc12`, the values for the pKB in assay [1] and in assay [2] were 6.2 and 6.75, respectively.
Take `CNC(=O)C1(N2CCCCC2=O)CCN(CC[C@H](CN(C)C(=O)c2cc(C#N)cc3ccccc23)c2ccc(Cl)c(Cl)c2)CC1`: the figures for the pKB in assay [1] and in assay [2] were 8.44 and 7.33, respectively.
Regarding `CCN1C(=O)c2ccccc2[C@H]1[C@@H](CCN1CCC(c2ccccc2[S@+](C)[O-])CC1)c1ccc(Cl)c(Cl)c1`, the figures for the Ki at Substance-K receptor and on Neuromedin-K receptor were 0.00092 µM and 9.19 µM, respectively.
With `CN(C[C@@H](CCN1CCC(c2c(F)cccc2[S+](C)[O-])CC1)c1ccc(Cl)c(Cl)c1)C(=O)c1cc(C#N)cc2ccccc12` (stereo partly drawn), the pKB was 6.83 in assay [1] and 7.25 in assay [2].
As for `CN(C[C@@H](CCN1CCC(c2cc(F)ccc2[S+](C)[O-])CC1)c1ccc(Cl)c(Cl)c1)C(=O)c1cc(C#N)cc2ccccc12` (mixture of isomers), the pKB turned out to be 8.34 in assay [1] and 8.26 in assay [2].

For orientation: pKB means the KB on a negative log10 scale, so that one unit is a factor of ten. What is called Ki is a measure of affinity in units of concentration, obtained from inhibition or displacement. Lower therefore signals higher affinity.

Source of the values: ChEMBL document CHEMBL1135768, “Design, synthesis, and SAR of tachykinin antagonists: modulation of balance in NK(1)/NK(2) receptor antagonist activity” (J Med Chem, 2002).
